# Results: PMC6522510 (Nature Communications, 2019)
# pEC50: −log10 of the molar value. Structures can show the parent of a compound that is named as a salt. Where two headings read alike, the source gives them in different places.
# How the values were obtained:
# [1] = system: MOLM-13; experiment: Secondary dose-response HTS, Cell Titer Glo; assay type: cell-based, human; conditions: MOLM-13
# [2] = system: ML2; experiment: Secondary dose-response HTS, Cell Titer Glo; assay type: cell-based, human; conditions: secondary high-throughput screen, ML-2; for pEC50: read-out: average effective concentration, ML-2
# [3] = system: MV4-11; experiment: cells; parameters: species or system AML cell lines (8); Secondary HTS, 10-point dose-response in triplicate, Cell Titer Glo viability, four-parameter fit EC50; conditions: Homo sapiens, MV4-11, 72 h, read-out: MV4-11
# [4] = system: CMK; experiment: Secondary dose-response HTS, Cell Titer Glo; assay type: cell-based, human; conditions: CMK
# [5] = system: U937; experiment: Secondary dose-response HTS, Cell Titer Glo; assay type: cell-based, human
# [6] = system: CHRF288-11; experiment: Secondary dose-response HTS, Cell Titer Glo; assay type: cell-based, human
# [7] = system: M07e; experiment: cells; parameters: species or system AML cell lines (8); Secondary HTS, 10-point dose-response in triplicate, Cell Titer Glo viability, four-parameter fit EC50; conditions: M-07e, 72 h, read-out: M07e
# [8] = system: CMS; experiment: Secondary dose-response HTS, Cell Titer Glo; assay type: cell-based, human
# [9] = system: MV4-11; experiment: Secondary dose-response HTS, Cell Titer Glo; assay type: cell-based, human; conditions: MV4-11
# [10] = system: U937; experiment: cells; parameters: species or system AML cell lines (8); Secondary HTS, 10-point dose-response in triplicate, Cell Titer Glo viability, four-parameter fit EC50; conditions: Homo sapiens, U-937, 72 h, read-out: U937
# [11] = system: CHRF288-11; experiment: cells; parameters: species or system AML cell lines (8); Secondary HTS, 10-point dose-response in triplicate, Cell Titer Glo viability, four-parameter fit EC50; conditions: 72 h, read-out: CHRF288-11
# [12] = system: CMS; experiment: cells; parameters: species or system AML cell lines (8); Secondary HTS, 10-point dose-response in triplicate, Cell Titer Glo viability, four-parameter fit EC50; conditions: 72 h, read-out: CMS
# [13] = system: CMK; experiment: cells; parameters: species or system AML cell lines (8); Secondary HTS, 10-point dose-response in triplicate, Cell Titer Glo viability, four-parameter fit EC50; conditions: Homo sapiens, CMK, 72 h, read-out: CMK
# [14] = system: MOLM-13; experiment: cells; parameters: species or system AML cell lines (8); Secondary HTS, 10-point dose-response in triplicate, Cell Titer Glo viability, four-parameter fit EC50; conditions: Homo sapiens, MOLM-13, 72 h, read-out: MOLM-13
# [15] = Homo sapiens, secondary high-throughput screen, read-out: average effective concentration, MOLM-13
# [16] = Homo sapiens, read-out: average effective concentration, CMK
# [17] = Homo sapiens, U-937, secondary high-throughput screen, U937, read-out: average effective concentration, U937
# [18] = Homo sapiens, HTS, secondary high-throughput screen, CHRF288-11, read-out: average effective concentration, CHRF288-11
# [19] = secondary high-throughput screen, read-out: average effective concentration, MOLM-13
# [20] = secondary high-throughput screen, read-out: average effective concentration, CMK
# [21] = secondary high-throughput screen, U937, read-out: average effective concentration, U937
# [22] = secondary high-throughput screen, read-out: average effective concentration, MV4-11
# [23] = secondary high-throughput screen, CHRF288-11, read-out: average effective concentration, CHRF288-11
# [24] = secondary high-throughput screen, CMS, read-out: average effective concentration, CMS
# [25] = Homo sapiens, secondary high-throughput screen, read-out: average effective concentration, CMK
# [26] = Homo sapiens, secondary high-throughput screen, read-out: average effective concentration, MV4-11
# [27] = Homo sapiens, HTS, secondary high-throughput screen, CMS, read-out: average effective concentration, CMS
# [28] = secondary high-throughput screen
# [29] = secondary high-throughput screen, U937
# [30] = secondary high-throughput screen, CHRF288-11
# [31] = secondary high-throughput screen, CMS
molecule,measurement,setting,value
C/C1=C\CC(C)(C)/C=C/C(=O)/C(C)=C/CC1 [ZERUMBONE],pEC50,[1]; [15],5.00
same,pEC50,[2]; Homo sapiens,5.16
same,pEC50,[3],< 5.00
same,pEC50,[4]; [16],5.14
same,pEC50,[5]; [17],5.00
same,pEC50,[6]; [18],5.07
same,pEC50,[7],< 5.00
same,pEC50,"[8]; Homo sapiens, HTS, read-out: average effective concentration, CMS",5.14
MITHRAMYCIN A,pEC50,[1]; [19],6.85
same,pEC50,[2],6.64
same,pEC50,[4]; [20],6.59
same,pEC50,[5]; [21],6.62
same,pEC50,[9]; [22],7.28
same,pEC50,[6]; [23],6.80
same,pEC50,[8]; [24],6.74
CC[C@]1(O)C[C@@H]2CN(CCc3c([nH]c4ccccc34)[C@@](C(=O)OC)(c3cc4c(cc3OC)N(C)[C@H]3[C@@](O)(C(=O)OC)[C@H](OC(C)=O)[C@]5(CC)C=CCN6CC[C@]43[C@@H]65)C2)C1 [VINBLASTINE SULFATE],pEC50,[1]; [15],6.66
same,pEC50,[2]; Homo sapiens,6.24
same,pEC50,[4]; [25],5.42
same,pEC50,[5]; [17],6.80
same,pEC50,[9]; [26],7.25
same,pEC50,[6]; [18],6.24
same,pEC50,[7],< 5.00
same,pEC50,[8]; [27],6.47
COc1c(C)cnc(Cn2cnc3c(Cl)nc(N)nc32)c1C [BIIB021],pEC50,[1]; [15],7.26
same,pEC50,[2]; Homo sapiens,7.08
same,pEC50,[4]; [25],7.17
same,pEC50,[5]; [17],7.52
same,pEC50,[9]; [26],7.25
same,pEC50,[6]; [18],7.04
same,pEC50,[7],< 5.00
same,pEC50,[8]; [27],6.96
CC1CS(=O)(=O)CCN1/N=C/c1ccc([N+](=O)[O-])o1 (centres unmarked) [NIFURTIMOX],pEC50,[2]; Homo sapiens,5.07
same,pEC50,[4]; [25],5.64
same,pEC50,[5]; [17],5.57
same,pEC50,[8]; [27],5.30
COCCn1c2c([n+](Cc3cnccn3)c1C)C(=O)c1ccccc1C2=O [YM-155],pEC50,[1]; [15],8.00
same,pEC50,[2]; Homo sapiens,7.68
same,pEC50,[4]; [25],7.51
same,pEC50,[5]; [17],7.66
same,pEC50,[9]; [26],7.70
same,pEC50,[6]; [18],5.64
same,pEC50,[7],< 5.00
same,pEC50,[8]; [27],7.04
Cc1noc(-c2ccc(-c3ccc(CC(=O)O)cc3)cc2)c1NC(=O)O[C@H](C)c1ccccc1 [AM-095],"average effective concentration, ML-2",[2],Inactive
same,"average effective concentration, CMK",[4]; [28],Inactive
same,"average effective concentration, U937",[5]; [29],Inactive
same,"average effective concentration, MV4-11",[9]; [28],Inactive
same,"average effective concentration, CHRF288-11",[6]; [30],Inactive
same,"average effective concentration, CMS",[8]; [31],Inactive
I-BET151,pEC50,[1]; [19],6.19
same,pEC50,[2],5.57
same,"average effective concentration, CMK",[4]; [28],Inactive
same,pEC50,[5]; [21],5.49
same,"average effective concentration, MV4-11",[9]; [28],Inactive
same,pEC50,[6]; [23],5.29
same,pEC50,[8]; [24],5.68
Cc1ccc(C(=O)Nc2ccc(Oc3cc4cnn(C)c4cc3-c3cn[nH]c3)c(F)c2)c(=O)n1-c1ccc(F)cc1 [LY2801653],"average effective concentration, ML-2",[2],Inactive
same,"average effective concentration, CMK",[4]; [28],Inactive
same,"average effective concentration, U937",[5]; [29],Inactive
same,"average effective concentration, MV4-11",[9]; [28],Inactive
same,"average effective concentration, CHRF288-11",[6]; [30],Inactive
same,"average effective concentration, CMS",[8]; [31],Inactive
C=C1C(=O)O[C@@H]2C[C@@]3(C)CCCC(=C)[C@@H]3C[C@H]12 [ISOHELENIN],pEC50,[1]; [19],5.23
same,pEC50,[2],5.18
same,pEC50,[4]; [20],5.28
same,pEC50,[5]; [21],5.09
same,"average effective concentration, MV4-11",[9]; [28],Inactive
same,pEC50,[6]; [23],5.17
same,pEC50,[8]; [24],5.27
O=C(NCC1(c2nc(-c3ccccc3)cs2)CCOCC1)c1cccc(-c2noc(C(F)(F)F)n2)c1 [TMP269],"average effective concentration, MOLM-13",[1]; [28],Inactive
same,"average effective concentration, ML-2",[2],Inactive
same,"average effective concentration, CMK",[4]; [28],Inactive
same,"average effective concentration, U937",[5]; [29],Inactive
same,"average effective concentration, MV4-11",[9]; [28],Inactive
same,"average effective concentration, CHRF288-11",[6]; [30],Inactive
same,"average effective concentration, CMS",[8]; [31],Inactive
Nc1nccc2c1ncn2C1C=C(CO)C(O)C1O (centres unmarked) [Compound 3-DEAZANEPLANOCIN],"average effective concentration, ML-2",[2],Inactive
same,"average effective concentration, U937",[5]; [29],Inactive
same,"average effective concentration, MV4-11",[9]; [28],Inactive
same,"average effective concentration, CMS",[8]; [31],Inactive
O=C(O)CC([S-])C(=O)O.[Au+] (centres unmarked) [AUROTHIOMALATE],"average effective concentration, MOLM-13",[1]; [28],Inactive
same,"average effective concentration, CMK",[4]; [28],Inactive
same,"average effective concentration, U937",[5]; [29],Inactive
same,"average effective concentration, MV4-11",[9]; [28],Inactive
same,"average effective concentration, CHRF288-11",[6]; [30],Inactive
same,"average effective concentration, CMS",[8]; [31],Inactive
CN[C@@H](C)C(=O)N[C@H]1CN(C(=O)CC(C)C)CC[C@H]2CC[C@@H](C(=O)NC(c3ccccc3)c3ccccc3)N2C1=O [AT-406],pEC50,[10],< 5.00
same,pEC50,[2]; Homo sapiens,5.18
same,pEC50,[11],< 5.00
same,pEC50,[12],< 5.00
same,pEC50,[13],< 5.00
same,pEC50,[9]; [26],9.00
same,pEC50,[14],< 5.00
same,pEC50,[7],< 5.00
Nc1nc(=O)n([C@H]2C[C@H](O)[C@@H](CO)O2)cc1F [Compound 5-FLUORODEOXYCYTIDINE],"average effective concentration, U937",[5]; [29],Inactive
same,"average effective concentration, MV4-11",[9]; [28],Inactive
same,"average effective concentration, CMS",[8]; [31],Inactive
"Cn1cc(CNCC2CCN(c3ncc(C(=O)NO)cn3)CC2)c2ccccc21 [Quisinostat, reference compound]",pEC50,"[1]; Homo sapiens, secondary HTS, 72 h, average of triplicate, read-out: EC50 MOLM-13",8.00
same,pEC50,[1]; [15],7.96
same,pEC50,"[4]; Homo sapiens, 72 h, read-out: EC50 CMK",7.70
same,pEC50,[4]; [16],7.74
same,pEC50,"[5]; Homo sapiens, U-937, secondary HTS, 72 h, average of triplicate, read-out: EC50 U937",8.00
same,pEC50,"[9]; Homo sapiens, secondary HTS, 72 h, average of triplicate, read-out: EC50 MV4-11",8.00
same,pEC50,[9]; [26],8.22
same,pEC50,[6]; [18],8.05
same,pEC50,"[6]; Homo sapiens, secondary HTS, 72 h, average of triplicate, read-out: EC50 CHRF288-11",8.00
same,pEC50,"[8]; Homo sapiens, HTS, 72 h, read-out: EC50 CMS",9.00
C[C@H](Oc1cc(-c2cnn(C3CCNCC3)c2)cnc1N)c1c(Cl)ccc(F)c1Cl [(S)-CRIZOTINIB],pEC50,[1]; [19],5.41
same,pEC50,[2],5.30
same,pEC50,[4]; [20],5.38
same,"average effective concentration, U937",[5]; [29],Inactive
same,pEC50,[9]; [22],5.41
same,pEC50,[6]; [23],5.11
same,pEC50,[8]; [24],5.08
BLEOMYCIN,pEC50,[1]; [19],5.16
same,"average effective concentration, CMK",[4]; [28],Inactive
same,"average effective concentration, U937",[5]; [29],Inactive
same,"average effective concentration, MV4-11",[9]; [28],Inactive
same,"average effective concentration, CMS",[8]; [31],Inactive
